Experimental data reported in US11292801B2, “Calpain modulators and therapeutic uses thereof” (Blade Therapeutics, Inc., priority 2016, dated 2022).
Where two headings read alike, the source gives them in different places.

Key:
[1] = rcm bond
Human Calpain 2/NS1 = target: T1, Human Calpain 2/NS1 (Homo sapiens, UniProt P17655); assay: Biochemical inhibition of calpain 2, continuous fluorescence (FRET substrate) assay; settings: mean, read-out: Human Calpain 2/NS1 IC50 (nM)_MEAN
T1 sequence (P17655 1-700): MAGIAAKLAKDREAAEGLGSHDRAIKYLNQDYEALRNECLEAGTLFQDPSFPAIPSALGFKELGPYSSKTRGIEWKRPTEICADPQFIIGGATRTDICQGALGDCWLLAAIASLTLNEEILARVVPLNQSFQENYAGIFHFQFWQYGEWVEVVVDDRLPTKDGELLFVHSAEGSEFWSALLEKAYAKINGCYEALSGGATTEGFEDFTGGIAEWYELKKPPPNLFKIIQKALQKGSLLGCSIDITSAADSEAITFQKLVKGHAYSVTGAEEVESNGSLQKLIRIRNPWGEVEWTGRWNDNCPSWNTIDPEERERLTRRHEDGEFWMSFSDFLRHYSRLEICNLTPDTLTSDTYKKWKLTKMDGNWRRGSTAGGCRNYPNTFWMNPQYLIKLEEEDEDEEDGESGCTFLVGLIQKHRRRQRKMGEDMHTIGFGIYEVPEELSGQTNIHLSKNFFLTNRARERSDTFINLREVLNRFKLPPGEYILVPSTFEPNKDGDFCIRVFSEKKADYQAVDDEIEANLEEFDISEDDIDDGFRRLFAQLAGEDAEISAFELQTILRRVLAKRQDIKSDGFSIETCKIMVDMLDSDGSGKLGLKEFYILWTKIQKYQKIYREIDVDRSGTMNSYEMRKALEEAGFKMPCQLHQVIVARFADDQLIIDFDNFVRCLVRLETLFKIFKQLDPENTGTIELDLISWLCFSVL
T1 sequence (P04632 1-268 partner): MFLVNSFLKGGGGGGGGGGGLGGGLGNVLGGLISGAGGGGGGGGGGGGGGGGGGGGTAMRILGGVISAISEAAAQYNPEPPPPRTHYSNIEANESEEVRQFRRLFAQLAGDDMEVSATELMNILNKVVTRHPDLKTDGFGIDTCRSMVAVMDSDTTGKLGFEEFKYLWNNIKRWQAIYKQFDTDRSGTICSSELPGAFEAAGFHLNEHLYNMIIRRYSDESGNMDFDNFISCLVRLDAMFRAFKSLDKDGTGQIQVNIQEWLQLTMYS
How it was run: (§1)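 IC50 values come from 4-parameter fits of progress-curve rates (1-5 min slopes) against log inhibitor concentration. Calpain and inhibitor premixed at ambient 25C in Tris pH ~7.5/NaCl/DTT buffer, then CaCl2 and FRET substrate added to activate; 5-FAM fluorescence (ex 490/em 520) followed 10 min.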

Human Calpain 1/NS1 = target: T2, Human Calpain 1/NS1 (Homo sapiens, UniProt P07384); assay: Biochemical inhibition of calpain 1, continuous fluorescence (FRET substrate) assay; settings: mean, read-out: Human Calpain 1/NS1 IC50 (nM)_MEAN
T2 sequence (P07384 1-714): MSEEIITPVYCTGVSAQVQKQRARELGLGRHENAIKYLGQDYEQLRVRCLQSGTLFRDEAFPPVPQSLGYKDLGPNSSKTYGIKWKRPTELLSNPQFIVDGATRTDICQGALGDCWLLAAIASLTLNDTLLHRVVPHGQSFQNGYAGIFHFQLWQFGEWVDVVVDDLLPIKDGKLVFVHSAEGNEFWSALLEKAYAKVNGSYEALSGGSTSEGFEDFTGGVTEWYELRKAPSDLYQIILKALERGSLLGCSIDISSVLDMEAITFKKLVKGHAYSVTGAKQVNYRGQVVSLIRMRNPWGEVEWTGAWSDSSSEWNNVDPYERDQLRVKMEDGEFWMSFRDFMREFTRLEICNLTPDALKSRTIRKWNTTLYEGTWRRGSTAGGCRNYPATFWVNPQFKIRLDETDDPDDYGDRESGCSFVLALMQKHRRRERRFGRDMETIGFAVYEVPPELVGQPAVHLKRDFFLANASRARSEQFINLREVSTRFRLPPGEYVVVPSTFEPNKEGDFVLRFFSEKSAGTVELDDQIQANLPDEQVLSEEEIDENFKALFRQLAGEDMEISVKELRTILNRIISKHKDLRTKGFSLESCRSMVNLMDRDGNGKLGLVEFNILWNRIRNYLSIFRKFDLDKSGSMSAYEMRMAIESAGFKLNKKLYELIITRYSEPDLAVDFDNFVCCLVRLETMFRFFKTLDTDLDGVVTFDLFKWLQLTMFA
T2 sequence (P04632 1-268 partner): T1 sequence (P04632 1-268 partner)
How it was run: as §1

Human Calpain 9/NS1 = target: T3, Human Calpain 9/NS1 (Homo sapiens, UniProt O14815); assay: Biochemical inhibition of calpain 9, continuous fluorescence (FRET substrate) assay; settings: mean, read-out: Human Calpain 9/NS1 IC50 (nM)_MEAN
T3 sequence (O14815 1-690): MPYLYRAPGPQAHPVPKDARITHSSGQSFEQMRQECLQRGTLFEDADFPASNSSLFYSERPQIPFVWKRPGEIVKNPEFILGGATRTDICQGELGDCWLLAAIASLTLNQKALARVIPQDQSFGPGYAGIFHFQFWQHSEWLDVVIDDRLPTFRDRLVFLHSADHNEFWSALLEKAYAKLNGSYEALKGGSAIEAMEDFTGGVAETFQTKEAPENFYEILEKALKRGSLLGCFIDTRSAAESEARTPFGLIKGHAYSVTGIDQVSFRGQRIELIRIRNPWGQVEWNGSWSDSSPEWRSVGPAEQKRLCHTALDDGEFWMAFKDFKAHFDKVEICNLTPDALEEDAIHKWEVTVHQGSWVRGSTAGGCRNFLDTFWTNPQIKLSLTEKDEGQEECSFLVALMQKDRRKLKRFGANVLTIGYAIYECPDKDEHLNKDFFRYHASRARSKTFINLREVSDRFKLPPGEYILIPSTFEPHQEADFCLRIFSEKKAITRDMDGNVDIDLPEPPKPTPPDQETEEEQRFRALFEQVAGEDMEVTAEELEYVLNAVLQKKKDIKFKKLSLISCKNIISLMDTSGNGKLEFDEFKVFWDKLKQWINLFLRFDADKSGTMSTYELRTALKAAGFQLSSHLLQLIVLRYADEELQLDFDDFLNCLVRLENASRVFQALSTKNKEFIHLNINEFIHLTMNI
T3 sequence (P04632 1-268 partner): T1 sequence (P04632 1-268 partner)
How it was run: as §1

Compound	ring closure, yield of all isomers ([1]; from C=CCCCCCc1ccccc1C(=O)N[C@@H](CC=C)C(=O)OCC, Grubbs 2nd generation catalyst, DCM, 8.31 mM, 50.0 °C, 14.0 h) [%]	ring closure, yield of all isomers ([1]; from C=CCOc1ccc(C[C@H](NC(=O)c2cccnc2-n2ccc(-c3cccc(OCC=C)c3)n2)C(=O)OC)cc1, Grubbs II, 1,2-dichloroethane, 8.35 mM, 90.0 °C, 48.0 h) [%]	IC50 (Human Calpain 2/NS1) [nM]	IC50 (Human Calpain 1/NS1) [nM]	IC50 (Human Calpain 9/NS1) [nM]
CCOC(=O)[C@@H]1CC=CCCCCCc2ccccc2C(=O)N1	18.1	–	–	–	–
COC(=O)[C@@H]1Cc2ccc(cc2)OCC=CCOc2cccc(c2)-c2ccn(n2)-c2ncccc2C(=O)N1	–	47	–	–	–
CCOC(=O)CCNC(=O)C(=O)[C@@H]1C/C=C/COCCOCc2ccccc2C(=O)N1 [Compound 63, Ethyl (S,E)-3-(2-oxo-2-(12-oxo-1,3,4,6,9,10,11,12-octahydrobenzo[f][1,4]dioxa[9]azacyclotetradecin-10-yl)acetamido)propanoate]	–	–	> 10000	> 10000	> 10000
CCCCc1ccc(CNC(=O)C(=O)C2CCCCOCCOCc3ccccc3C(=O)N2)cc1 (centres unmarked) [Compound 112, N-(4-butylbenzyl)-2-oxo-2-(12-oxo-1,3,4,6,7,8,9,10,11,12-decahydrobenzo[f][1,4]dioxa[9]azacyclotetradecin-10-yl)acetamide]	–	–	> 10000	> 10000	< 3000
O=C(NCc1ccncc1)C(=O)C1CCCCOCCOCc2ccccc2C(=O)N1 (centres unmarked) [Compound 117, 2-Oxo-2-(12-oxo-1,3,4,6,7,8,9,10,11,12-decahydrobenzo[f][1,4]dioxa[9]aza-cyclotetradecin-10-yl)-N-(pyridin-4-ylmethyl)acetamide]	–	–	3000 to 10000	> 10000	< 3000
O=C[C@@H]1Cc2ccc(cc2)OC/C=C/COc2ccc3c(cnn3-c3ncccc3C(=O)N1)c2 [Compound 66, (5S,E)-3-oxo-1^1H-8,13-dioxa-4-aza-1(1,5)-indazola-2(2,3)-pyridina-7(1,4)-benzenacyclotridecaphan-10-ene-5-carbaldehyde]	–	–	< 3000	< 3000	< 3000
CCCNC(=O)C(=O)C1CCCCOCCOCc2ccccc2C(=O)N1 (centres unmarked) [Compound 91, 2-Oxo-2-(12-oxo-1,3,4,6,7,8,9,10,11,12-decahydrobenzo[f][1,4]dioxa[9]azacyclotetradecin-10-yl)-N-propylacetamide]	–	–	> 10000	> 10000	> 10000
O=C[C@@H]1CCCCCCOc2ccnc(c2)-c2ccccc2C(=O)N1 [Compound 131, (S)-3-oxo-12-oxa-4-aza-1(2,4)-pyridina-2(1,2)-benzenacyclododecaphane-5-carbaldehyde]	–	–	< 3000	< 3000	< 3000
NC(=O)C(=O)[C@@H]1CCCCCCOc2ccnc(c2)-c2ccccc2C(=O)N1 [Compound 132, (S)-2-oxo-2-(3-oxo-12-oxa-4-aza-1(2,4)-pyridina-2(1,2)-benzenacyclododecaphane-5-yl)acetamide]	–	–	< 3000	< 3000	< 3000
CCNC(=O)C(=O)[C@@H]1CC=CCCCCCc2ccccc2C(=O)N1 [Compound 26, (S)—N-ethyl-2-oxo-2-(1-oxo-2,3,4,7,8,9,10,11-octahydro-1h-benzo[c][1]azacyclotridecin-3-yl)acetamide]	–	–	> 10000	> 10000	3000 to 10000
O=C(NCCCN1CCOCC1)C(=O)C1CCCCOCCOCc2ccccc2C(=O)N1 (centres unmarked) [Compound 92, N-(3-morpholinopropyl)-2-oxo-2-(12-oxo-1,3,4,6,7,8,9,10,11,12-decahydrobenzo[f][1,4]dioxa[9]azacyclotetradecin-10-yl)acetamide]	–	–	> 10000	> 10000	3000 to 10000
O=C(NCc1ccccc1Cl)C(=O)C1CCCCOCCOCc2ccccc2C(=O)N1 (centres unmarked) [Compound 95, N-(2-chlorobenzyl)-2-oxo-2-(12-oxo-1,3,4,6,7,8,9,10,11,12-decahydrobenzo[f][1,4]dioxa[9]azacyclotetradecin-10-yl)acetamide]	–	–	> 10000	> 10000	< 3000
O=C[C@@H]1CCCCCCCOc2ccccc2C(=O)N1 [Compound 6, (S)-11-Oxo-2,3,4,5,6,7,8,9,10,11-decahydrobenzo[b][1]oxa[5]azacyclotridecine-9-carbaldehyde]	–	–	< 3000	3000 to 10000	< 3000
CCCCNC(=O)C(=O)[C@@H]1CCCCOCCOCc2ccccc2C(=O)N1 [Compound 53, (S)—N-butyl-2-oxo-2-(12-oxo-1,3,4,6,7,8,9,10,11,12-decahydrobenzo[f][1,4]dioxa[9]azacyclotetradecin-10-yl)acetamide]	–	–	> 10000	> 10000	< 3000
CCNC(=O)C(=O)[C@@H]1Cc2ccc(cc2)OC/C=C/COc2cccc(c2)-c2ccn(n2)-c2ncccc2C(=O)N1 [Compound 65, N-ethyl-2-oxo-2-((2^2E,6S,11E)-4-oxo-2^1H-9,14-dioxa-5-aza-3(2,3)-pyridina-2(3,1)-pyrazola-1(1,3),8(1,4)-dibenzenacyclotetradecaphan-11-en-6-yl)acetamide]	–	–	< 3000	< 3000	< 3000
O=C[C@@H]1CCCCOCCOc2ccccc2C(=O)N1 [Compound 19, (S)-11-Oxo-2,3,6,7,8,9,10,11-octahydro-5h-benzo[e][1,4]dioxa[8]azacyclotridecine-9-carbaldehyde]	–	–	3000 to 10000	> 10000	3000 to 10000
O=C(NCc1ccc(Cl)c(Cl)c1)C(=O)C1CCCCOCCOCc2ccccc2C(=O)N1 (centres unmarked) [Compound 83, N-(3,4-dichlorobenzyl)-2-oxo-2-(12-oxo-1,3,4,6,7,8,9,10,11,12-decahydrobenzo[f][1,4]dioxa[9]azacyclotetradecin-10-yl)acetamide]	–	–	3000 to 10000	> 10000	< 3000
CON(C)C(=O)[C@@H]1C/C=C\CCOc2ccnc(n2)-c2ccccc2C(=O)N1 [Compound 136, (S,Z)—N-methoxy-N-methyl-3-oxo-11-oxa-4-aza-1(2,4)-pyrimidina-2(1,2)-benzenacycloundecaphan-7-ene-5-carboxamide]	–	–	> 10000	> 10000	> 10000
